From patent EP2762573A1, “In vitro method for determining cholestatic properties of a compound” (priority 2013, dated 2014)

Experiments:
Settings in all cases: male, C57BL/6, mouse
Parp16 = experiment: Biomarkers validation by q-pcr in precision cut liver slices: Parp16 expression
Experimental: (§1) 23-weeks old male C57BL/6 mice were obtained from Harlan (Horst, The Netherlands). Animals were kept for 1 week at a housing temperature of 22°C and at a relative humidity of 30-70%. The lighting cycle was 12-h light and 12-h dark. At the age of 24 weeks animals were sacrificed by an overdose of isoflurane. The treatment protocol was approved by the Ethical Committee for Animal Experiments at Wageningen University.
(§2) Immediately after the animals were killed the liver was perfused with PBS and placed in ice-cold Krebs-Henseleit buffer (KHB) (pH 7.4, supplemented with 11 mM glucose). Liver tissue was transported to the laboratory within approximately 30 min and cylindrical liver cores were produced using a surgical biopsy punch with diameter of 5 mm (KAI, SynErgo Europe, Romania). Liver cores were placed in a Krumdieck tissue slicer (Alabama Research and Development, Munford, AL) filled with ice-cold KHB aerated with carbogen and supplemented with 11 mM glucose. Precesion cut liver slices (PCLS) with a diameter of 5 mm, a thickness of 0.2 mm and a weight of approximately 10 mg were prepared. Immediately after preparation, slices were transferred into culture plates filled with pre-warmed (37 degrees C) Williams E medium (WEM). Three liver slices were pre-cultured in one well of the 6-well plate filled with 4 ml of WEM for one hour with continuous shaking (70 rpm). Incubations were performed in an oxygen controlled incubator (Galaxy 48 R New Brunswick, Nijmegen, the Netherlands) at 80% of oxygen; 5% CO2 and the remaining gas volume was filled up to […] with N2. After one hour of pre-incubation, media were removed and replaced with fresh media containing test compounds or appropriate solvents. After incubations, samples were snap-frozen in liquid nitrogen and stored in -80 °C for further analysis. Samples dedicated to histology were stored in 4 % formaldehyde at room temperature.
(§3) PCLS were incubated at the same conditions as described above. Slices were exposed for 24 and 48 hours to one concentration of the tested compounds or controls. Concentrations used in the exposure experiments were preselected in the dose selection experiments for each drug individually. […] For the necrotic compounds: 1000 uM acetaminophen, 5 µM paraquat and 1000 uM isoniazid. Liver slices obtained from five mice were used in five toxic compound or control exposure experiments performed at the same time. Dose selection experiments and exposure experiments were performed at different days. Therefore, ATP, LDH, and protein assays were performed again for the exposure experiments to confirm that the selected doses did also not affect slice viability in these experiments.
(§4) In further studies, expression of ten candidate biomarkers in PCLS was analyzed by q-pcr using the Biorad CFX96 TM Real-Time Detection System (Bio-Rad, Veenendaal, The Netherlands) with the following cycling conditions: 15 min 95°C followed by 40 cycles of 15s 95 °C and 1 min 60 °C. Reactions were performed in 10 µl and contained 20 ng cDNA, 1x TaqMan PCR Master Mix (Applied Biosystems, Foster City, CA), and depending on the analysed gene, 250 nM probe and 900 nM primer (for actin b) or 1xTaqMan gene expression assay (for the remaining genes) (Applied Biosystems, foster City, CA).

ABCG8 = experiment: Biomarkers validation by q-pcr in precision cut liver slices: ABCG8 expression
Experimental: as §1, §2, §3, §4

BAAT = experiment: Biomarkers validation by q-pcr in precision cut liver slices: BAAT expression
Experimental: as §1, §2, §3, §4

ABCG5 = experiment: Biomarkers validation by q-pcr in precision cut liver slices: ABCG5 expression
Experimental: as §1, §2, §3, §4

KLF15 = experiment: Biomarkers validation by q-pcr in precision cut liver slices: KLF15 expression
Experimental: as §1, §2, §3, §4

Nme6 = experiment: Biomarkers validation by q-pcr in precision cut liver slices: Nme6 expression
Experimental: as §1, §2, §3, §4

SERPINE1 = experiment: Biomarkers validation by q-pcr in precision cut liver slices: SERPINE1 expression
Experimental: as §1, §2, §3, §4

Bcl2l11 = experiment: Biomarkers validation by q-pcr in precision cut liver slices: Bcl2l11 expression
Experimental: as §1, §2, §3, §4

Mras = experiment: Biomarkers validation by q-pcr in precision cut liver slices: Mras expression
Experimental: as §1, §2, §3, §4

Myo1e = experiment: Biomarkers validation by q-pcr in precision cut liver slices: Myo1e expression
Experimental: as §1, §2, §3, §4

PCLS = experiment: Cytotoxicity analysis - dose selection experiments (LDH, ATP, protein assay)
Experimental: as §1, §2, §3

CC(=O)Nc1ccc(O)cc1 [APAP, acetaminophen]
*fold change 1, gene expression level Parp 16 (Parp16): 1,4 | *fold change 2, gene expression level Parp 16 (Parp16): -1,3 | *fold change 3, gene expression level Parp 16 (Parp16): 1,4 | *fold change 4, gene expression level Parp 16 (Parp16): 1,5 | *fold change 5, gene expression level Parp 16 (Parp16): 1,6 | *fold change 1, gene expression level ABCG8 (ABCG8): -1,7 | *fold change 2, gene expression level ABCG8 (ABCG8): -1,2 | *fold change 3, gene expression level ABCG8 (ABCG8): 1,4 | *fold change 4, gene expression level ABCG8 (ABCG8): -1,1 | *fold change 5, gene expression level ABCG8 (ABCG8): 1,4 | *fold change 1, gene expression level BAAT (BAAT): -5,0 | *fold change 2, gene expression level BAAT (BAAT): -2,0 | *fold change 3, gene expression level BAAT (BAAT): -1,4 | *fold change 4, gene expression level BAAT (BAAT): -2,8 | *fold change 5, gene expression level BAAT (BAAT): -1,5 | *fold change 1, gene expression level ABCG5 (ABCG5): -2,1 | *fold change 2, gene expression level ABCG5 (ABCG5): -1,3 | *fold change 3, gene expression level ABCG5 (ABCG5): 1,4 | *fold change 4, gene expression level ABCG5 (ABCG5): -1,4 | *fold change 5, gene expression level ABCG5 (ABCG5): 1,1 | *fold change 1, gene expression level KLF15 (KLF15): -1,5 | *fold change 2, gene expression level KLF15 (KLF15): -1,2 | *fold change 3, gene expression level KLF15 (KLF15): -1,4 | *fold change 4, gene expression level KLF15 (KLF15): -1,1 | *fold change 5, gene expression level KLF15 (KLF15): 1,2 | *fold change 1, gene expression level Nme6 (Nme6): -1,2 | *fold change 2, gene expression level Nme6 (Nme6): -1,2 | *fold change 3, gene expression level Nme6 (Nme6): -1,1 | *fold change 4, gene expression level Nme6 (Nme6): -1,3 | *fold change 5, gene expression level Nme6 (Nme6): 1,0 | *fold change 1, gene expression level SERPINE1 (SERPINE1): -1,6 | *fold change 2, gene expression level SERPINE1 (SERPINE1): -1,4 | *fold change 3, gene expression level SERPINE1 (SERPINE1): 1,2 | *fold change 4, gene expression level SERPINE1 (SERPINE1): -1,3 | *fold change 5, gene expression level SERPINE1 (SERPINE1): 1,5 | *fold change 1, gene expression level Bcl2111 (Bcl2l11): 1,9 | *fold change 2, gene expression level Bcl2111 (Bcl2l11): 1,1 | *fold change 3, gene expression level Bcl2111 (Bcl2l11): 2,0 | *fold change 4, gene expression level Bcl2111 (Bcl2l11): 2,4 | *fold change 5, gene expression level Bcl2111 (Bcl2l11): 1,7 | *fold change 1, gene expression level Mras (Mras): 1,7 | *fold change 2, gene expression level Mras (Mras): -1,0 | *fold change 3, gene expression level Mras (Mras): 1,3 | *fold change 4, gene expression level Mras (Mras): 1,2 | *fold change 5, gene expression level Mras (Mras): 1,4 | *fold change 1, gene expression level Myo 1e (Myo1e): 1,1 | *fold change 2, gene expression level Myo 1e (Myo1e): -1,2 | *fold change 3, gene expression level Myo 1e (Myo1e): 1,4 | *fold change 4, gene expression level Myo 1e (Myo1e): 1,4 | *fold change 5, gene expression level Myo 1e (Myo1e): 1,4 | highest concentration that did not cause significant increase of toxicity (PCLS): 1000 µM

CN(C)CCCN1c2ccccc2Sc2ccc(Cl)cc21 [CPZ, chlorpromazine]
*fold change 1, gene expression level Parp 16 (Parp16): -1,1 | *fold change 2, gene expression level Parp 16 (Parp16): -1,4 | *fold change 3, gene expression level Parp 16 (Parp16): -1,1 | *fold change 4, gene expression level Parp 16 (Parp16): -1,4 | *fold change 5, gene expression level Parp 16 (Parp16): -1,0 | *fold change 1, gene expression level ABCG8 (ABCG8): -2,9 | *fold change 2, gene expression level ABCG8 (ABCG8): -2,1 | *fold change 3, gene expression level ABCG8 (ABCG8): -5,4 | *fold change 4, gene expression level ABCG8 (ABCG8): -4,5 | *fold change 5, gene expression level ABCG8 (ABCG8): -1,1 | *fold change 1, gene expression level BAAT (BAAT): -2,3 | *fold change 2, gene expression level BAAT (BAAT): -3,3 | *fold change 3, gene expression level BAAT (BAAT): -8,5 | *fold change 4, gene expression level BAAT (BAAT): -6,4 | *fold change 5, gene expression level BAAT (BAAT): 1,4 | *fold change 1, gene expression level ABCG5 (ABCG5): -4,2 | *fold change 2, gene expression level ABCG5 (ABCG5): -2,9 | *fold change 3, gene expression level ABCG5 (ABCG5): -6,7 | *fold change 4, gene expression level ABCG5 (ABCG5): -3,8 | *fold change 5, gene expression level ABCG5 (ABCG5): -1,0 | *fold change 1, gene expression level KLF15 (KLF15): -2,0 | *fold change 2, gene expression level KLF15 (KLF15): -1,8 | *fold change 3, gene expression level KLF15 (KLF15): -3,2 | *fold change 4, gene expression level KLF15 (KLF15): -1,8 | *fold change 5, gene expression level KLF15 (KLF15): 1,6 | *fold change 1, gene expression level Nme6 (Nme6): 1,1 | *fold change 2, gene expression level Nme6 (Nme6): 1,3 | *fold change 3, gene expression level Nme6 (Nme6): 1,7 | *fold change 4, gene expression level Nme6 (Nme6): 1,3 | *fold change 5, gene expression level Nme6 (Nme6): 1,2 | *fold change 1, gene expression level SERPINE1 (SERPINE1): 2,9 | *fold change 2, gene expression level SERPINE1 (SERPINE1): -1,4 | *fold change 3, gene expression level SERPINE1 (SERPINE1): -4,7 | *fold change 4, gene expression level SERPINE1 (SERPINE1): -5,8 | *fold change 5, gene expression level SERPINE1 (SERPINE1): -1,8 | *fold change 1, gene expression level Bcl2111 (Bcl2l11): -1,2 | *fold change 2, gene expression level Bcl2111 (Bcl2l11): -1,4 | *fold change 3, gene expression level Bcl2111 (Bcl2l11): -1,2 | *fold change 4, gene expression level Bcl2111 (Bcl2l11): -1,9 | *fold change 5, gene expression level Bcl2111 (Bcl2l11): -2,3 | *fold change 1, gene expression level Mras (Mras): 1,3 | *fold change 2, gene expression level Mras (Mras): 2,0 | *fold change 3, gene expression level Mras (Mras): 2,6 | *fold change 4, gene expression level Mras (Mras): 1,4 | *fold change 5, gene expression level Mras (Mras): 1,1 | *fold change 1, gene expression level Myo 1e (Myo1e): -1,1 | *fold change 2, gene expression level Myo 1e (Myo1e): -1,0 | *fold change 3, gene expression level Myo 1e (Myo1e): 1,1 | *fold change 4, gene expression level Myo 1e (Myo1e): 1,0 | *fold change 5, gene expression level Myo 1e (Myo1e): -1,1 | highest concentration that did not cause significant increase of toxicity (PCLS): 10 µM
